Measurements reported in patent publication US5661001A, “High molecular weight desulphatohirudin” (Ciba-Geigy Corporation, priority 1993, dated 1997).

Assays:
α-thrombin = α-thrombin (Homo sapiens, UniProt P00734); experiment: antithrombin activity: inhibition of α-thrombin digesting Chromozym TH; format: biochemical
Protocol: The amino acid composition is determined by the dimethylaminoazobenzene sulfonyl (dabsyl) chloride method (Chang et al. Anal. Biochem. (1991), 197, 52-58.), which allows direct quantization of the disulfide content. The amino acid sequence was analyzed by an Applied Biosystem Inc. 470A protein sequencer. The antithrombin activity of desulphatohirudin derivatives was assessed by their ability to inhibit α-thrombin from digesting Chromozym TH (Boehringer Mannheim), using the described protocol (Stone et al. Biochemistry (1986), 25, 4622-4628; Chatrenet et al. J. Biol. Chem. (1992), 267, 3038-3043). The molecular weight of desulphatohirudin is […], determined by the laser desorption ionization mass spectrometry using a home-built instrument (Boernsen et al. Chimia (1990), 44, 412-416).

plasma APTT = experiment: ex vivo plasma APTT after subcutaneous administration in the rat; details: s.c. 1 ml/kg, dimer 4.5 mg/ml, HV1 3.0 mg/ml, mean±SEM, n=5
Protocol: (APTT=activated partial thrombin time)
[Cys^33 ]HV1--[Cys^33 ]HV1 dimer is dissolved in saline to a concentration of 4.5 mg/ml and unmodified hirudin-monomer is dissolved in saline to a concentration of 3.0 mg/ml (these doses are chosen based on the in vitro results in order to achieve a similar effect on APTT at 1 h). Solutions are administered subcutaneously to rats (1 ml/kg). At various times after administration, blood (2 ml) is collected by cardiac puncture directly into one tenth volume trisodium titrate solution (3.8% w/v) and immediately mixed. The anticoagulated blood is centrifuged at 2500 g for 20 min to obtain platelet free plasma.
Plasma samples are assayed for APTT using standard methods on the Instrumentation Laboratory ACL 300R coagulometer. The method for APTT determination utilizes the Instrumentation Laboratory ellagic acid test kit--plasma (50 μl) is incubated with ellagic acid activating reagent (50 μl) at 37° C. for 5 min prior to the addition of calcium chloride solution (50 μl of 25 mM solution) and the time taken for the plasma clot is recorded automatically, the end point being determined optically by the light scattered when the fibrin network formed (see table 1).
The results are expressed as a multiple of the means control APTT value and presented as mean±standard error of the mean (n=5).

human thrombin = human thrombin (Homo sapiens, UniProt P00734); experiment: kinetic parameters for inhibition of human thrombin (progress-curve experiments, D-Phe-pipecolyl-Arg-p-nitroanilide); format: biochemical; details: substrate 100 μM, enzyme 20 pM; weighted means of two determinations
Protocol: The kinetic parameters of the [Cys^33 ]HV1--[Cys^33 ]HV1 dimer are determined from progress-curve experiments as described by Stone et al. Biochemistry (1986), 25, 4622-4628 and Braun et al. Biochemistry, (1988), 27, 6517-6522. For each determination, the formation of p-nitroaniline from D-Phe-pipecolyl-Arg-p-nitroanilide is monitored in six assays, one in absence of inhibitor and the others with different concentrations of inhibitor ranging from 10 to 60 pM for the [Cys^33 ]HV1--[Cys^33 ]HV1 dimer. The substrat concentration is 100 μM and the enzyme concentration is 20 pM.
The kinetic parameters are determined twice and values given in table 2 represent the weightened means of the estimates.

potency of thrombin inhibition, monomer versus dimer (α-thrombin; comparison of Cys33 monomer and dimer) | Substance | thrombin inhibition (inhibitory activity, equal weight basis) (α-thrombin; 1 nM desulphatohirudin, 1.5 nM α-thrombin) | APTT as multiple of the mean control APTT value (plasma APTT; 0 hours) | APTT as multiple of the mean control APTT value (plasma APTT; 1 hour) | APTT as multiple of the mean control APTT value (plasma APTT; 4 hours) | APTT as multiple of the mean control APTT value (plasma APTT; 6 hours) | 10^8 k1 (human thrombin)
nearly indistinguishable (±3%) | Cys^33 monomer: mutant of recombinant desulphatohirudin HV1 with cysteine replacing aspartic acid at position 33 (SEQ ID NO: 8) | – | – | – | – | – | –
– | HV1: unmodified desulphatohirudin variant 1 monomer, used as comparator | 82±5% | 1.00 ± 0.02 multiple of control APTT | 2.44 ± 0.07 multiple of control APTT | 1.43 ± 0.05 multiple of control APTT | 0.95 ± 0.02 multiple of control APTT | 1.37 ± 0.03 M^-1 s^-1
